In publication PMC12406200, “Structural Basis of PPARγ-Mediated Transcriptional Repression by the Covalent Inverse Agonist FX-909” (Journal of Medicinal Chemistry, 2025):

Assays:
[1] = target: T1, full-length human PPARγ (isoform 2) (Homo sapiens, UniProt P37231); test: Transcriptional reporter assay (3xPPRE-luciferase) in HEK293T cells transfected with full-length PPARγ; assay type: cell-based; conditions: for IC50: full-length PPARγ + 3xPPRE-luciferase, 18 h treatment, n = 4, three-parameter fit, read-out: cellular IC50 (decrease in PPARγ-mediated transcription)
T1 construct: full-length human PPARγ (isoform 2) expression plasmid; expressed in transfected cells; host or cells: HEK293T (ATCC #CRL-11268)
T1 sequence (P37231 1-505): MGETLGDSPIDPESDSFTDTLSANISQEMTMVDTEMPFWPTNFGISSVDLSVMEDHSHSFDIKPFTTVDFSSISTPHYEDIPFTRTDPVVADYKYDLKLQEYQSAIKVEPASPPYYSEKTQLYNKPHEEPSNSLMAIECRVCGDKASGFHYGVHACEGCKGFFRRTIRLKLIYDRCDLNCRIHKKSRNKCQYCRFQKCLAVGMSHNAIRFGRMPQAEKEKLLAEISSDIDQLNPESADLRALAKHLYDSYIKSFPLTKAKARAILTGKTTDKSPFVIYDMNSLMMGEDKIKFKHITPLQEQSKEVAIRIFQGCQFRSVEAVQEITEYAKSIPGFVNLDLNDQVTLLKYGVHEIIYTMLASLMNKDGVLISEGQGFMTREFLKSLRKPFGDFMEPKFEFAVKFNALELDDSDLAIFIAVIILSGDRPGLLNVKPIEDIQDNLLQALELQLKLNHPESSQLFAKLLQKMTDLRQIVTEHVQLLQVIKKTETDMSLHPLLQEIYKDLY
Procedure: 1 Pharmacological PPARγ ligand set used in this study. (A) Chemical structures and pharmacological properties of the ligands. […] (B) Transcriptional reporter assay performed in HEK293T cells transfected with a full-length PPARγ expression plasmid and a 3xPPRE-luciferase reporter plasmid. Data were normalized to cells treated with DMSO control, represented as mean ± s.d.
After an 18 h incubation, cells were transferred to white 384-well cell culture plates (Thermo Fisher Scientific) at 10,000 cells/well in 20 μL total volume/well. After a 4 h incubation, cells were treated in quadruplicate with 20 μL of either vehicle control (1.5% DMSO in DMEM) or a 3-fold serial dilution of ligands (1 μM highest ligand concentration). After a final 18 h incubation, cells were harvested with 20 μL of Britelite Plus (PerkinElmer), and luminescence was measured on a BioTek Synergy Neo multimode plate reader. Data were plotted in GraphPad Prism as luminescence vs ligand concentration as mean ± s.d. (n = 4) and fit to a three-parameter sigmoidal dose–response curve equation.

[2] = target: T2, PPARγ LBD / NCoR1 corepressor peptide (Homo sapiens, UniProt P37231); test: TR-FRET coregulator interaction assay, NCoR1 corepressor peptide; assay type: biochemical; conditions: for EC50: 4 nM 6xHis-PPARγ LBD, 400 nM FITC-NCoR1 peptide, 1 h at 25 °C, n = 3, read-out: NCoR1 TR-FRET EC50 (increase in NCoR1 peptide interaction)
T2 construct: residues 203–477 (isoform 1 numbering) with a TEV-cleavable N-terminal hexa-his-tag; made in house; host or cells: Escherichia coli BL21(DE3), pET46 plasmid
T2 sequence (P37231 203-477 isoform P37231-2): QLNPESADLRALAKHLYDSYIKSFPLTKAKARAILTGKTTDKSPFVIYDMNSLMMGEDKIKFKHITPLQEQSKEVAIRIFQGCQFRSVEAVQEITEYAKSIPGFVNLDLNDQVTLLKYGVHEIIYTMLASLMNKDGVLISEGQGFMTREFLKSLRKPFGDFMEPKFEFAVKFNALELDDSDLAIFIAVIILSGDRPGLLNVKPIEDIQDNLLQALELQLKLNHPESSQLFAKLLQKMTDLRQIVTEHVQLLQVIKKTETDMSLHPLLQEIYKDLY
From the text: (§1) We next characterized the ligand set using biochemical assays that report on ligand-dependent changes in the interaction between PPARγ LBD and FITC-labeled peptides derived from NR coregulator proteins that contribute to PPARγ-mediated transcription in cells, including the TRAP220/MED1 coactivator and NCoR1 corepressor. We used time-resolved fluorescence resonance energy transfer (TR-FRET) assays to determine relative ligand potency (or covalent reactivity) and efficacy (via increased or decreased TR-FRET ratio values). […] We performed fluorescence polarization (FP) assays to directly measure binding affinities between the PPARγ LBD and coregulator peptides.
(§2) 2 Biochemical coregulator profiling data. Time-resolved fluorescence resonance energy transfer (TR-FRET) coregulator interaction assay performed with (A) the NCoR1 corepressor peptide or (B) the TRAP220/MED1 coactivator peptide in the presence of the indicated ligands. Data represent mean ± s.e.m. […] Fluorescence polarization (FP) binding assay performed with (C) NCoR1 corepressor peptide or (D) TRAP220/MED1 coactivator peptide in the presence of the indicated ligands. Data represent mean ± s.e.m. […] (E) Pairwise correlation plots between PPARγ-mediated transcription (y-axis) and biochemical coregulator profiling data (x-axis). Spearman correlation coefficients (r p) and associated two-tailed p values are listed.
(§3) Time-resolved fluorescence resonance energy transfer (TR-FRET) coregulator peptide interaction assays were performed in low-volume black 384-well plates (Greiner) using a 23 μL final well volume. Each well contained 4 nM protein (WT or mutant 6xHis-PPARγ LBD), 1 nM LanthaScreen Elite Tb-anti-His Antibody (ThermoFisher #PV5895), and 400 nM FITC-labeled TRAP220/MED1 and NCoR1 peptide in a buffer containing 20 mM potassium phosphate (pH 7.4), 50 mM KCl, 5 mM TCEP, and 0.005% Tween 20. Ligand stocks were prepared via serial dilution in DMSO, added to wells in triplicate (10 μM highest final ligand concentration), and plates were read using BioTek Synergy Neo multimode plate reader after incubation for 1 h at 25 °C.

[3] = target: T3, PPARγ LBD / TRAP220/MED1 coactivator peptide (Homo sapiens, UniProt P37231); test: TR-FRET coregulator interaction assay, TRAP220/MED1 coactivator peptide; assay type: biochemical; conditions: for IC50: 4 nM 6xHis-PPARγ LBD, 400 nM FITC-TRAP220/MED1 peptide, 1 h at 25 °C, n = 3, read-out: MED1 TR-FRET IC50 (decrease in TRAP220/MED1 peptide interaction)
T3 construct: residues 203–477 (isoform 1 numbering) with a TEV-cleavable N-terminal hexa-his-tag; made in house; host or cells: Escherichia coli BL21(DE3), pET46 plasmid
T3 sequence (P37231 203-477 isoform P37231-2): T2 sequence (P37231 203-477 isoform P37231-2)
From the text: as §1, §2, §3

| SMILES | IC50 [1] | EC50 [2] | IC50 [3] | effect on PPARγ-mediated transcription (in words) ([1]; 3xPPRE-luciferase reporter) | effect on NCoR1 corepressor peptide interaction, TR-FRET efficacy (in words) ([2]; TR-FRET ratio) | effect on TRAP220/MED1 coactivator peptide interaction, TR-FRET efficacy (in words) ([3]; TR-FRET ratio) |
| --- | --- | --- | --- | --- | --- | --- |
| CS(=O)(=O)c1ccc(C#N)cc1-c1cc(=O)c2c(F)cc(F)cc2[nH]1 [FX-909, 3-(5,7-difluoro-4-oxo-1,4-dihydroquinolin-2-yl)-4-(methylsulfonyl)benzonitrile] | 1.31 nM | 33 nM | 16 nM | – | – | – |
| O=C(Nc1ccccc1)c1cc([N+](=O)[O-])ccc1Cl [GW9662] | – | 17 nM | – | no change in activity | relatively little change in efficacy | relatively little change in efficacy |
| N#Cc1ccc(NC(=O)c2cc([N+](=O)[O-])ccc2Cl)cn1 [SR33068] | 1.58 nM | 17 nM | 5 nM | – | – | – |
